Experimental data from PMC12753220, “A new amidohydrolase and β-oxidation–like pathway for piperine catabolism in soil actinomycetes” (The Journal of Biological Chemistry, 2025).

Molecular target: T1, PipM (piperine hydrolase) (Rhodococcus erythropolis, UniProt Z9TMQ3P3F8)
T1 construct: full length, no signal peptide, untagged (pET24a(+)-pipM), E. coli Rosetta2 (DE3); ORF 1389 nt (462 residues deduced), ~50 kDa monomer, homotetramer ~220 kDa; N-terminus of native protein NSFALSNV
T1 sequence (Z9TMQ3P3F8 1-462): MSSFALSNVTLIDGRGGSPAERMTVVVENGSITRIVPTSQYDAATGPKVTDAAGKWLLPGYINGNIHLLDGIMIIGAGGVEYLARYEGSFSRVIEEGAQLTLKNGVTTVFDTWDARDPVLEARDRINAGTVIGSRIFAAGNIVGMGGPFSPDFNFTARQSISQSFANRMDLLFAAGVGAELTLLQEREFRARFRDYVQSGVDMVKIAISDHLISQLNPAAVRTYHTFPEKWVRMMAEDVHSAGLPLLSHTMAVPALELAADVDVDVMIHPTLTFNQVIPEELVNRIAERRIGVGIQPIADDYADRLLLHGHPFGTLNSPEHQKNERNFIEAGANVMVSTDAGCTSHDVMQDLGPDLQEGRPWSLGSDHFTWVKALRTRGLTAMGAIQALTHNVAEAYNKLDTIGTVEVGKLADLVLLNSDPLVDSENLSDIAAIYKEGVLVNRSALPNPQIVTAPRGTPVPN
Assay: HPLC at […] nm of piperic acid formation, Michaelis-Menten fit
Format: biochemical
Conditions: 50 mM potassium phosphate pH 7.5, 28 °C, 1 min, 0.116 μM PipM, 0.001-0.5 mM piperine

O=C(/C=C/C=C/c1ccc2c(c1)OCO2)N1CCCCC1 [piperine]
Km: 2110 ± 310 nM
